Key:
[1] = system: MRC5 non-malignant lung fibroblasts; test: CCK-8 assay on non-malignant cells for selective toxicity; assay type: cell-based; conditions: Homo sapiens; MRC5 non-malignant lung fibroblasts, CCK-8; read-out: IC50 MRC5
Protocol: (§2) In vitro cytotoxicity of the γ-lactam derivatives was evaluated by testing their antiproliferative activities against several human cancer cell lines. Cell counting kit (CCK-8) assay was used for the evaluation of growth inhibition.
(§3) All stock solutions of the investigated compounds were prepared by dissolving the powdered materials in appropriate amounts of DMSO. The final concentration of DMSO never exceeded 5% (v/v) in reactions. The stock solution was stored at 5 °C until it was used.
(§4) All were supplemented with 10% of fetal bovine serum (FBS) (Sigma-Aldrich, Madrid, Spain) and with 1% of NORMOCIN solution (Thermo Fisher, Waltham, Massachusetts, MA, USA). […] For cytotoxicity experiments, A549 cells were seeded in 96-well plates at a density of 2.5–3 × 10^3 cells per well and incubated overnight to achieve 70% of confluence at the time of exposition to the cytotoxic compound.
(§5) Both were supplemented with 10% of fetal bovine serum (FBS) (Sigma-Aldrich, Spain) and with 1% of NORMOCIN solution (Thermo Fisher, Waltham, Massachusetts, MA, USA). […] For cytotoxicity experiments, A549 cells were seeded in 96-well plates at a density of 2.5–3 × 10^3 cells per well and incubated overnight to achieve 70% of confluence at the time of exposition to the cytotoxic compound.

[2] = system: SKOV3 (human ovarian carcinoma); test: CCK-8 antiproliferative assay, SKOV3 cell line; conditions: Homo sapiens, SK-OV-3, read-out: IC50 SKOV3, SKOV3 cell line, CCK-8
Protocol: as §2, §3, §4

A549 cells [3] = test: Visualization of cell growth and morphology; assay type: cell-based, human
Protocol: Next, cell morphology analysis and flow cytometry assays were performed, to elucidate the mechanism of the antiproliferative activity of γ-lactam substrates. Cell morphology was analyzed at different time points after the addition of compound 4b to visualize the cellular modifications as a result of the treatment.
Qualitative analysis of A549 cell growth and morphology after exposure to 1 µM and 5 µM of the cytotoxic compound 4b was conducted using Cytation^TM 1 Cell Imaging Multi-Mode Reader (Biotek, Winooski, VT, USA). Cell images were acquired immediately after the addition of the compound and at the following time-points after exposure: 0.5, 1, 1.5, 2, 3, 4, 8, 12, 16, 24, and 48 h.

[4] = system: A549 (carcinomic human alveolar basal epithelial cell); test: CCK-8 antiproliferative assay, A549 cell line; assay type: cell-based; conditions: Homo sapiens, A549, A549 cell line, CCK-8; read-out: IC50 A549
Protocol: as §2, §3, §4, §5

[5] = system: RKO (human colon epithelial carcinoma); test: CCK-8 antiproliferative assay, RKO cell line; assay type: cell-based
Protocol: as §2, §3, §4

[6] = system: MCF7 (human breast adenocarcinoma); test: CCK-8 antiproliferative assay, MCF7 cell line; assay type: cell-based
From the text: (§1) In a preliminary study, we tested the cytotoxicity of γ-lactam 4b as lead compound against seven human cancer cell lines: HEK293 (human embryonic kidney), MCF7 (human breast adenocarcinoma), HTB81 (human prostate carcinoma), HeLa (human epithelioid cervix carcinoma), RKO (human colon epithelial carcinoma), SKOV3 (human ovarian carcinoma) and A549 (carcinomic human alveolar basal epithelial cell). The cell proliferation inhibitory activity of γ-lactam 4b is shown as IC50 values (Figure 2).

[7] = system: HEK293 (human embryonic kidney); test: CCK-8 antiproliferative assay, HEK293 cell line; assay type: cell-based
From the text: as §1

[8] = system: HTB81 (human prostate carcinoma); test: CCK-8 antiproliferative assay, HTB81 cell line; assay type: cell-based
From the text: as §1

[9] = system: HeLa (human epithelioid cervix carcinoma); test: CCK-8 antiproliferative assay, HeLa cell line; assay type: cell-based
From the text: as §1

A549 cells [10] = test: Flow cytometry apoptosis/necrosis assay (Annexin V FITC / propidium iodide); assay type: cell-based, human; conditions: A549, 5 µM; for Percentage of late-apoptotic and necrotic cells: FL-1 and FL-3 positive; for Percentage of early-apoptotic cells: FL-1 positive, FL-3 negative
Protocol: In addition, flow cytometry assays were performed using compound 4b in A549 cells at 12, 24, and 48 h post-exposure. Early apoptotic cells were FL-1 positive and FL-3 negative, meaning that they had initialized the apoptotic process but were still alive at the time of the measurement. Percentages of these early-apoptotic cells after 12, 24, and 48 h. were, respectively, 31.17 ± 2.04%, 34.97 ± 3.62% and 40.13 ± 0.81%. On the other hand, late apoptotic and necrotic cells were both FL-1 and FL-3 positive, meaning that they activated the apoptotic machinery and were dead at the time of the measurement. Percentages of late-apoptotic and necrotic cells after 12, 24 and 48 h were, respectively, 33.03 ± 1.43%, 37.60 ± 3.37% and 36.90 ± 0.70% (Figure 4). Control live cells were all FL-1 and FL-3 negative, while around 95% of control necrotic cells were FL-3 positive, FL-1 negative (See ESI). […] In fact, among all the dead cells detected, which were FL-1 positive, almost all were simultaneously positive for the FL-3 channel too, while only a small percentage (2% or lower) of dead cells were exclusively FL-1 positive. Therefore, the majority of dead cells detected in this study were apoptotic cells. In addition, the total percentages of […], which comprised early and late apoptotic cells, were over 60%, and the percentage increased over time.
Flow cytometry assays were conducted using a FACSCalibur system flow cytometer (Becton Dickinson Bioscience, Franklin Lakes, NJ, USA), to identify apoptotic cells and to differentiate them from necrotic cells. A549 cells were exposed to 5 µM of the cytotoxic compound 4b and cell apoptosis and necrosis were evaluated 12, 24, and 48 h after exposure. For that purpose, treated cells were washed with phosphate-buffered saline (PBS) (Sigma-Aldrich, Spain) and detached with trypsin/EDTA (0.25%) (Gibco, New York, NY, USA). Cells were centrifuged at 1100 rpm for 5 min, and then the resulting pellet was resuspended in cell growth media and transferred to specific flow cytometer tubes. Propidium iodide (Sigma-Aldrich, Spain) at 1:300 dilution was used in each sample to detect necrotic cells and eBioscience™ Annexin V Apoptosis Detection Kit FITC (Fisher Scientific, Spain) was used to detect apoptotic cells following the manufacturer’s instructions. The fluorescent signals corresponding to necrotic cells and apoptotic cells were measured at 650 nm (FL3) and 525 nm (FL1), respectively. […] Cells treated with 1 µM of camptothecin (Sigma-Aldrich, Spain) served as a positive control for apoptosis and were used to establish cytometer settings and channel compensations. The experiments were carried out in triplicate for each condition. For each sample, 10,000 events were collected.

IC50 [2]: 9.62 ± 1.18 µM
IC50 [5]: 22.1 ± 2.98 µM
IC50 ([6]; Homo sapiens, MCF7, Figure 2): > 50 µM
IC50 [8]: 27.9 µM
IC50 [9]: 30.2 µM
Structure (SMILES): Cc1ccc(NC2=CC(c3ccccc3)N(c3ccc(C)cc3)C2=O)cc1 (stereo not drawn) [4b]
IC50 [1]: > 50 µM
Cell morphology and growth (A549 cells [3]; 1 µM, 0-48 h): healthy, uniform morphology
Cell morphology and growth (A549 cells [3]; 5 µM, especially after 6 h of exposure): alterations of the cellular morphology
Cell morphology (A549 cells [3]; higher concentrations (10 and 15 µM, 24 h)): high cytotoxicity
IC50 [4]: 2340 ± 280 nM
Growth inhibition activity against MCF7, in words [6]: no grown inhibition activity
Growth inhibition activity against HEK293, in words [7]: no grown inhibition activity
IC50 ([7]; Homo sapiens, HEK293, Figure 2): > 50 µM
Percentage of dead cells exclusively FL-1 positive (A549 cells [10]; 12-48 h): ≤ 2%
Total percentage of FL-3 positive cells (early and late apoptotic cells) (A549 cells [10]; 12-48 h, increased over time): over 60%
Percentage of late-apoptotic and necrotic cells (A549 cells [10]; 12 h post-exposure): 33.03 ± 1.43%
Percentage of early-apoptotic cells (A549 cells [10]; 12 h post-exposure): 31.17 ± 2.04%
Percentage of late-apoptotic and necrotic cells (A549 cells [10]; 24 h post-exposure): 37.60 ± 3.37%
Percentage of early-apoptotic cells (A549 cells [10]; 24 h post-exposure): 34.97 ± 3.62%
Percentage of late-apoptotic and necrotic cells (A549 cells [10]; 48 h post-exposure): 36.90 ± 0.70%
Percentage of early-apoptotic cells (A549 cells [10]; 48 h post-exposure): 40.13 ± 0.81%
